Source: US20060069132A1, “Azolecarboxamide herbicides” (priority 2004, published 2006)

Key:
large crabgrass = test: Test A pre-/postemergence herbicide test; format: in vivo, Digitaria sanguinalis
In short: (§1)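 Visual injury scores on a 0–100 scale (100 = complete control) taken about ten days post-treatment in greenhouse against untreated controls; dash means no result. Treatments: preemergence soil spray and postemergence spray to runoff on one- to two-leaf plants 2 to 10 cm tall, surfactant-containing formulation.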

velvetleaf = test: Test A pre-/postemergence herbicide test; format: in vivo, Abutilon theophrasti
In short: as §1

rice = test: Test B pre-/postemergence herbicide test; format: in vivo, Oryza sativa; details: for Plant response rating, Rice: preemergence, 125 g ai/ha, 0 to 100 scale, 0 is no effect, 100 is complete control
In short: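 Response was scored visually 13 to 15 days after treatment against untreated greenhouse controls, 0 meaning no effect and 100 complete control. Formulations (solvent mixture plus surfactant) went onto soil after planting, onto foliage of 1- to 4-leaf plants, and onto 2-leaf plants in a flooded paddy set including rice and barnyardgrass.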

Surinam grass = test: Test C pre-/postemergence herbicide test; format: in vivo, Urochloa decumbens; details: for Surinam Grass plant response rating: 500 g ai/ha
In short: (§2)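 Visual ratings on a 0–100 scale (100 = complete control) made versus untreated controls after 12 to 14 greenhouse days. Test chemicals, formulated in surfactant-containing non-phytotoxic solvent, applied preemergence to planted seeds or postemergence to 1- to 4-leaf plants (2 to 18 cm).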

woolly cupgrass = test: Test C pre-/postemergence herbicide test; format: in vivo, Eriochloa villosa; details: for Cupgrass, Woolly plant response rating: 500 g ai/ha
In short: as §2

goosegrass = test: Test C pre-/postemergence herbicide test; format: in vivo, Eleusine indica; details: for Goosegrass plant response rating: 500 g ai/ha
In short: as §2

johnsongrass = test: Test C pre-/postemergence herbicide test; format: in vivo, Sorghum halepense; details: for Johnsongrass plant response rating: 500 g ai/ha
In short: as §2

eastern black nightshade = test: Test C pre-/postemergence herbicide test; format: in vivo, Solanum ptycanthum; details: for Plant response rating (0 = no effect, 100 = complete control), Nightshade: 62 g ai/ha; for Plant response rating (0 = no effect, 100 = complete control), Nightshade / Plant response rating, Nightshade: preemergence; for Plant response rating, Nightshade: visual, 12 to 14 days; for Nightshade plant response rating: Preemergence, 500 g ai/ha, scale 0 to 100, 0 no effect, 100 complete control
In short: as §2

soybean = test: Test C pre-/postemergence herbicide test; format: in vivo, Glycine max; details: for Soybean plant response rating: 500 g ai/ha
In short: as §2

[1] = system: common (oilseed) sunflower; test: Test C pre-/postemergence herbicide test; format: in vivo, Helianthus annuus; details: for Plant response rating (0 = no effect, 100 = complete control), Sunflower: 62 g ai/ha; for Plant response rating (0 = no effect, 100 = complete control), Sunflower / Plant response rating, Sunflower: preemergence; for Sunflower plant response rating: Preemergence, 500 g ai/ha, scale 0 to 100, 0 no effect, 100 complete control; for Plant response rating, Sunflower: visual, 12 to 14 days
In short: as §2

[2] = Postemergence, 500 g ai/ha, 0 to 100 scale, 0 no effect, 100 complete control
[3] = Postemergence, 2000 g ai/ha, 0 to 100 scale, 0 no effect, 100 complete control
[4] = Preemergence, 500 g ai/ha, visual rating, 0 to 100 scale (0 no effect, 100 complete control)
[5] = Preemergence, 2000 g ai/ha, visual rating, 0 to 100 scale (0 no effect, 100 complete control)
[6] = 125 g ai/ha, scale 0 (no effect) to 100 (complete control), visual, 12 to 14 days, preemergence
[7] = Postemergence, 250 g ai/ha, scale 0 to 100, 0 no effect, 100 complete control
[8] = Preemergence, scale 0 to 100, 0 no effect, 100 complete control
[9] = postemergence, 125 g ai/ha, scale 0 to 100
[10] = postemergence, 62 g ai/ha, scale 0 to 100
[11] = 250 g ai/ha, scale 0 to 100 (0 no effect, 100 complete control), visual, 12 to 14 days, preemergence
[12] = 125 g ai/ha, scale 0 (no effect) to 100 (complete control)
[13] = Preemergence, 2000 g ai/ha, 0 to 100 scale, 0 no effect, 100 complete control
[14] = Postemergence, 125 g ai/ha, scale 0 to 100, 0 no effect, 100 complete control
[15] = 250 g ai/ha, scale 0 to 100 (0 no effect, 100 complete control)

Question: For `CC(=NO)c1cccc(NC(=O)c2cc(C(C)(C)C)nn2CCF)c1` [Compound 115], which “Crabgrass, Large plant response rating” value (large crabgrass; [2]) is on record?
Answer: 75

Question: And the “Plant response rating, Crabgrass, Large” value (large crabgrass; [3])?
Answer: 80

Question: What about the “Crabgrass, Large plant response rating” value (large crabgrass; [4]) of the same compound?
Answer: 100

Question: What about the “Crabgrass, Large plant response rating” value (large crabgrass; [5]) of the same compound?
Answer: 100

Question: And the “Velvetleaf plant response rating” value (velvetleaf; [2])?
Answer: 40

Question: And the “Plant response rating, Velvetleaf” value (velvetleaf; [3])?
Answer: 40

Question: What about the “Velvetleaf plant response rating” value (velvetleaf; [4]) of the same compound?
Answer: 85

Question: And the “Velvetleaf plant response rating” value (velvetleaf; [5])?
Answer: 95

Question: What about the “Plant response rating, Rice” value (rice) of the same compound?
Answer: 0

Question: And the “Plant response rating (0 = no effect, 100 = complete control), Surinam Grass” value (Surinam grass; 62 g ai/ha, preemergence)?
Answer: 20

Question: And the “Plant response rating, Surinam Grass” value (Surinam grass; [6])?
Answer: 40

Question: And the “Surinam Grass plant response rating” value (Surinam grass; Postemergence, scale 0 to 100)?
Answer: 60

Question: What about the “Plant response rating, Surinam Grass” value (Surinam grass; [7]) of the same compound?
Answer: 60

Question: What about the “Surinam Grass plant response rating” value (Surinam grass; [8]) of the same compound?
Answer: 90

Question: And the “Plant response rating, Surinam Grass” value (Surinam grass; [9])?
Answer: 40

Question: And the “Plant response rating, Surinam Grass” value (Surinam grass; [10])?
Answer: 30

Question: And the “Plant response rating (0 = no effect, 100 = complete control), Cupgrass, Woolly” value (woolly cupgrass; 62 g ai/ha, preemergence)?
Answer: 20

Question: What about the “Plant response rating, Cupgrass, Woolly” value (woolly cupgrass; [6]) of the same compound?
Answer: 30

Question: What about the “Plant response rating, Cupgrass, Woolly” value (woolly cupgrass; [11]) of the same compound?
Answer: 80

Question: What about the “Cupgrass, Woolly plant response rating” value (woolly cupgrass; Postemergence, scale 0 to 100) of the same compound?
Answer: 70

Question: And the “Plant response rating, Cupgrass, Woolly” value (woolly cupgrass; [7])?
Answer: 70

Question: What about the “Cupgrass, Woolly plant response rating” value (woolly cupgrass; [8]) of the same compound?
Answer: 90

Question: And the “Plant response rating, Cupgrass, Woolly” value (woolly cupgrass; [9])?
Answer: 70

Question: What about the “Plant response rating, Cupgrass, Woolly” value (woolly cupgrass; [10]) of the same compound?
Answer: 50

Question: And the “Plant response rating (0 = no effect, 100 = complete control), Goosegrass” value (goosegrass; 62 g ai/ha, preemergence)?
Answer: 70

Question: What about the “Plant response rating, Goosegrass” value (goosegrass; [6]) of the same compound?
Answer: 80

Question: What about the “Goosegrass plant response rating” value (goosegrass; Postemergence, scale 0 to 100) of the same compound?
Answer: 70

Question: And the “Plant response rating, Goosegrass” value (goosegrass; [7])?
Answer: 70

Question: What about the “Goosegrass plant response rating” value (goosegrass; [8]) of the same compound?
Answer: 100

Question: What about the “Plant response rating, Goosegrass” value (goosegrass; [9]) of the same compound?
Answer: 60

Question: What about the “Plant response rating, Goosegrass” value (goosegrass; [10]) of the same compound?
Answer: 40

Question: What about the “Plant response rating (0 = no effect, 100 = complete control), Johnsongrass” value (johnsongrass; 62 g ai/ha, preemergence) of the same compound?
Answer: 70

Question: What about the “Plant response rating, Johnsongrass” value (johnsongrass; [6]) of the same compound?
Answer: 100

Question: And the “Johnsongrass plant response rating” value (johnsongrass; Postemergence, scale 0 to 100)?
Answer: 100

Question: And the “Plant response rating, Johnsongrass” value (johnsongrass; [7])?
Answer: 80

Question: And the “Johnsongrass plant response rating” value (johnsongrass; [8])?
Answer: 100

Question: And the “Plant response rating, Johnsongrass” value (johnsongrass; [9])?
Answer: 50

Question: What about the “Plant response rating, Johnsongrass” value (johnsongrass; [10]) of the same compound?
Answer: 30

Question: And the “Plant response rating (0 = no effect, 100 = complete control), Nightshade” value (eastern black nightshade)?
Answer: 100

Question: What about the “Plant response rating, Nightshade” value (eastern black nightshade; [12]) of the same compound?
Answer: 100

Question: What about the “Nightshade plant response rating” value (eastern black nightshade) of the same compound?
Answer: 100

Question: And the “Plant response rating (0 = no effect, 100 = complete control), Soybean” value (soybean; 62 g ai/ha, preemergence)?
Answer: 0

Question: What about the “Plant response rating, Soybean” value (soybean; [6]) of the same compound?
Answer: 0

Question: And the “Soybean plant response rating” value (soybean; Postemergence, scale 0 to 100)?
Answer: 90

Question: And the “Plant response rating, Soybean” value (soybean; [7])?
Answer: 80

Question: What about the “Soybean plant response rating” value (soybean; [8]) of the same compound?
Answer: 0

Question: And the “Plant response rating, Soybean” value (soybean; [9])?
Answer: 70

Question: What about the “Plant response rating, Soybean” value (soybean; [10]) of the same compound?
Answer: 60

Question: What about the “Plant response rating (0 = no effect, 100 = complete control), Sunflower” value [1] of the same compound?
Answer: 0

Question: What about the “Sunflower plant response rating” value [1] of the same compound?
Answer: 10

Question: Which results are given for `CCNC(=O)c1cc(NC(=O)c2cc(C(C)(C)C)nn2CC)ccc1F` [Compound 58]?
Answer: Plant response rating, Crabgrass, Large (large crabgrass; [2]): 40; Plant response rating, Crabgrass, Large (large crabgrass; [3]): 75; Crabgrass, Large plant response rating (large crabgrass; [4]): 70; Crabgrass, Large plant response rating (large crabgrass; [13]): 95; Plant response rating, Velvetleaf (velvetleaf; [3]): 40; Velvetleaf plant response rating (velvetleaf; [4]): 70; Velvetleaf plant response rating (velvetleaf; [13]): 65; Rice plant response rating (rice; Preemergence, 500 g ai/ha, scale 0 to 100): 80; Plant response rating, Rice (rice): 60; Plant response rating (0 = no effect, 100 = complete control), Surinam Grass (Surinam grass; 62 g ai/ha, preemergence): 10; Plant response rating, Surinam Grass (Surinam grass; [6]): 55; Plant response rating, Surinam Grass (Surinam grass; [11]): 80; Surinam Grass plant response rating (Surinam grass; Postemergence, scale 0 to 100): 25; Surinam Grass plant response rating (Surinam grass; [8]): 100; Plant response rating (0 = no effect, 100 = complete control), Cupgrass, Woolly (woolly cupgrass; 62 g ai/ha, preemergence): 0; Plant response rating, Cupgrass, Woolly (woolly cupgrass; [6]): 40; Plant response rating, Cupgrass, Woolly (woolly cupgrass; [11]): 60; Cupgrass, Woolly plant response rating (woolly cupgrass; Postemergence, scale 0 to 100): 20; Plant response rating, Cupgrass, Woolly (woolly cupgrass; [14]): 5; Plant response rating, Cupgrass, Woolly (woolly cupgrass; [7]): 20; Cupgrass, Woolly plant response rating (woolly cupgrass; [8]): 80; Plant response rating, Cupgrass, Woolly (woolly cupgrass; [10]): 5; Plant response rating (0 = no effect, 100 = complete control), Goosegrass (goosegrass; 62 g ai/ha, preemergence): 90; Plant response rating, Goosegrass (goosegrass; [6]): 95; Plant response rating, Goosegrass (goosegrass; [11]): 95; Goosegrass plant response rating (goosegrass; Postemergence, scale 0 to 100): 30; Plant response rating, Goosegrass (goosegrass; [14]): 5; Plant response rating, Goosegrass (goosegrass; [7]): 10; Goosegrass plant response rating (goosegrass; [8]): 95; Plant response rating, Goosegrass (goosegrass; [10]): 0; Plant response rating (0 = no effect, 100 = complete control), Johnsongrass (johnsongrass; 62 g ai/ha, preemergence): 70; Plant response rating, Johnsongrass (johnsongrass; [6]): 80; Plant response rating, Johnsongrass (johnsongrass; [11]): 90; Johnsongrass plant response rating (johnsongrass; Postemergence, scale 0 to 100): 10; Plant response rating, Johnsongrass (johnsongrass; [14]): 0; Plant response rating, Johnsongrass (johnsongrass; [7]): 5; Johnsongrass plant response rating (johnsongrass; [8]): 100; Plant response rating, Johnsongrass (johnsongrass; [10]): 0; Plant response rating (0 = no effect, 100 = complete control), Nightshade (eastern black nightshade): 95; Plant response rating, Nightshade (eastern black nightshade; [12]): 100; Plant response rating, Nightshade (eastern black nightshade; [15]): 100; Nightshade plant response rating (eastern black nightshade): 100; Plant response rating (0 = no effect, 100 = complete control), Soybean (soybean; 62 g ai/ha, preemergence): 0; Plant response rating, Soybean (soybean; [6]): 5; Plant response rating, Soybean (soybean; [11]): 25; Soybean plant response rating (soybean; Postemergence, scale 0 to 100): 90; Plant response rating, Soybean (soybean; [7]): 80; Soybean plant response rating (soybean; [8]): 40; Plant response rating, Soybean (soybean; [10]): 15; Plant response rating (0 = no effect, 100 = complete control), Sunflower [1]: 0; Plant response rating, Sunflower [1, 12]: 0; Plant response rating, Sunflower [1, 15]: 0; Sunflower plant response rating [1]: 0
